Earlier results in patent US20070032554A1, “Treatment of stuttering and other communication disorders with norepinephrine reuptake inhibitors” (ELILILLY AND COMPANY a Corporation, priority 2003, published 2007).

Conditions: for side effects / tolerability: literature reports, treatment of stuttering; for effect on stuttering: literature reports in persons who stutter

Structure (SMILES) | side effects / tolerability | effect on stuttering
Cc1cc2c(s1)Nc1ccccc1N=C2N1CCN(C)CC1 [Olanzapine] | mostly limited to slight weight gain and drowsiness | 
Fc1ccc([C@@H]2CCNC[C@H]2COc2ccc3c(c2)OCO3)cc1 [Paroxetine] | a number of undesirable side effects | 
Cc1nc2n(c(=O)c1CCN1CCC(c3noc4cc(F)ccc34)CC1)CCCC2 [risperidone] | sedation was common | may be effective
O=C(CCCN1CCC(O)(c2ccc(Cl)cc2)CC1)c1ccc(F)cc1 [haloperidol] | not well tolerated | reduce the symptoms of stuttering
CN[C@H]1CC[C@@H](c2ccc(Cl)c(Cl)c2)c2ccccc21 [Sertraline] | a number of undesirable side effects | 
